Laboratory results as given in the supplement of paper PMC12137928.
Where a name gives a salt, the structure may show the parent alone.

Legend:
[1] = system: HCT116; conditions: 72 h
Summary of the method: (§1)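 Luminescence was read with CellTiter-Glo in HCT116 cells seeded at 250 per well in 1536-well plates. Signals were scaled between vehicle at 0% and positive control at -100%, then pattern-corrected. IC50 and maximal efficacy were obtained by fitting a four-parameter Hill equation.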

[2] = system: HCT116; assay: efficacy (maximum % inhibition of viability vs DMSO); higher = more cytotoxic; conditions: 72 h
Summary of the method: as §1

SMILES | IC50 cell viability ([1]; ICRF193 0 nM) | IC50 cell viability ([1]; ICRF193 200 nM) | efficacy ([2]; ICRF193 0 nM) | efficacy ([2]; ICRF193 200 nM)
N=C(NCCCCCCNC(=N)NC(=N)Nc1ccc(Cl)cc1)NC(=N)Nc1ccc(Cl)cc1 [Chlorhexidine] | 18.3 µM | 18.3 µM | 104% | 103%
COc1ccc(C(Cl)=C(c2ccc(OC)cc2)c2ccc(OC)cc2)cc1 [Chlorotrianisene] | > 45.8 µM | 23.1 µM | – | 45.8%
Oc1c(Cl)cc(Cl)c2cccnc12 [Chloroxine] | 29.1 µM | 29.1 µM | 103% | 112%
CN(C)CCCN1c2ccccc2Sc2ccc(Cl)cc21 [Chlorpromazine] | 20.6 µM | 29.1 µM | 117% | 93.2%
CN(C)CC/C=C1/c2ccccc2Sc2ccc(Cl)cc21 [Chlorprothixene] | 16.4 µM | 25.9 µM | 66.1% | 68.9%
Cc1cc(C2CCCCC2)n(O)c(=O)c1 [Ciclopirox] | 11.6 µM | 13 µM | 107% | 98.9%
COCCOC(=O)C1=C(C)NC(C)=C(C(=O)OC/C=C/c2ccccc2)C1c1cccc([N+](=O)[O-])c1 (configuration not stated) [Cilnidipine] | 18.3 µM | 20.6 µM | 82.3% | 103%
O=C1CCc2cc(OCCCCc3nnnn3C3CCCCC3)ccc2N1 [Cilostazol] | > 45.8 µM | 23.1 µM | – | 46%
C[C@@H](NCCCc1cccc(C(F)(F)F)c1)c1cccc2ccccc12 [Cinacalcet hydrochloride] | 20.6 µM | 20.6 µM | 87.6% | 94.6%
Nc1nc(Cl)nc2c1ncn2[C@H]1C[C@H](O)[C@@H](CO)O1 [Cladribine] | 1.3 µM | 0.651 µM | 56.1% | 66.1%
CN1CCC[C@@H]1CCO[C@](C)(c1ccccc1)c1ccc(Cl)cc1 [Clemastine fumarate] | 18.3 µM | 23.1 µM | 88% | 114%
Oc1c(I)cc(Cl)c2cccnc12 [Clioquinol] | 29.1 µM | 29.1 µM | 99.1% | 98.1%
CCCC(=O)O[C@]1(C(=O)CCl)[C@H](C)C[C@@H]2[C@@H]3CCC4=CC(=O)C=C[C@]4(C)[C@]3(F)C(=O)C[C@@]21C [Clobetasone butyrate] | 20.6 µM | 14.6 µM | 50.4% | 40.9%
NC(=O)C1(N2CCCCC2)CCN(CCCN2c3ccccc3CCc3ccc(Cl)cc32)CC1 [Clocapramine] | 23.1 µM | 18.3 µM | 117% | 105%
Nc1nc(Cl)nc2c1ncn2[C@@H]1O[C@H](CO)[C@@H](O)[C@@H]1F [Clofarabine] | 0.146 µM | 0.231 µM | 45.9% | 65.2%
O=C(Nc1ccc(Cl)cc1)Nc1ccc(Cl)c(C(F)(F)F)c1 [Cloflucarban] | 5.8 µM | 5.8 µM | 98.6% | 98.1%
CCN(CC)CCOc1ccc(C(=C(Cl)c2ccccc2)c2ccccc2)cc1 [Clomifene citrate] | 18.3 µM | 20.6 µM | 110% | 120%
CN(C)CCCN1c2ccccc2CCc2ccc(Cl)cc21 [Clomipramine hydrochloride] | 18.3 µM | 20.6 µM | 74.9% | 90.5%
Clc1cccc(Cl)c1NC1=NCCN1 [Clonidine] | > 45.8 µM | 4.11 µM | – | 68.5%
COC(=O)[C@H](c1ccccc1Cl)N1CCc2sccc2C1 [Clopidogrel bisulfate] | 18.3 µM | 23.1 µM | 67.2% | 76.8%
Cc1cc(C(C#N)c2ccc(Cl)cc2)c(Cl)cc1NC(=O)c1cc(I)cc(I)c1O (configuration not stated) [Closantel] | 9.2 µM | 10.3 µM | 70.3% | 77.1%
Clc1ccccc1C(c1ccccc1)(c1ccccc1)n1ccnc1 [Clotrimazole] | 18.3 µM | 16.4 µM | 102% | 94.7%
CC(C)c1nc(CN(C)C(=O)N[C@@H](CCN2CCOCC2)C(=O)N[C@H](CC[C@H](Cc2ccccc2)NC(=O)OCc2cncs2)Cc2ccccc2)cs1 [Cobicistat] | 14.6 µM | > 45.8 µM | 40.1% | –
O=C(c1ccc(F)c(F)c1Nc1ccc(I)cc1F)N1CC(O)([C@@H]2CCCCN2)C1 [Cobimetinib] | 18.3 µM | 9.2 µM | 55.7% | 75.9%
COc1cc2c(c(OC)c1OC)-c1ccc(OC)c(=O)cc1[C@@H](NC(C)=O)CC2 [Colchicine] | 0.0326 µM | 0.0326 µM | 74% | 69.5%
Cc1nc2c([nH]1)-c1ccccc1N(C(=O)c1ccc(NC(=O)c3ccccc3-c3ccccc3)cc1)CC2 [Conivaptan hydrochloride] | > 45.8 µM | 29.1 µM | – | 60%
COc1c(OCCCN2CCOCC2)ccc2c1N=C(NC(=O)c1cnc(N)nc1)N1CCN=C21 [Copanlisib] | 0.944 µM | 0.473 µM | 59.1% | 65.9%

SMILES | IC50 cell viability ([1]; ICRF193 0 nM) | IC50 cell viability ([1]; ICRF193 200 nM) | efficacy ([2]; ICRF193 0 nM) | efficacy ([2]; ICRF193 200 nM)
CN(C)CCC=C1c2ccccc2C=Cc2ccccc21 [Cyclobenzaprine hydrochloride] | > 45.8 µM | 20.6 µM | – | 52.3%
C[C@H]1O[C@@H](O[C@H]2[C@@H](O)C[C@H](O[C@H]3[C@@H](O)C[C@H](O[C@H]4CC[C@@]5(C)[C@H](CC[C@@H]6[C@@H]5CC[C@]5(C)[C@@H](C7=CC(=O)OC7)CC[C@]65O)C4)O[C@@H]3C)O[C@@H]2C)C[C@H](O)[C@@H]1O [DIGITOXIN] | 0.0651 µM | > 45.8 µM | 73.1% | –
CO[C@H]1C[C@H](O[C@H]2[C@H](C)O[C@@H](O[C@@H]3/C(C)=C/C[C@@H]4C[C@@H](C[C@]5(C=C[C@H](C)[C@@H](C6CCCCC6)O5)O4)OC(=O)[C@@H]4C=C(C)[C@@H](O)[C@H]5OC/C(=C\C=C\[C@@H]3C)[C@]54O)C[C@@H]2OC)O[C@@H](C)[C@@H]1O [DORAMECTIN] | 13 µM | 7.3 µM | 112% | 106%
CC(C)(C)c1nc(-c2cccc(NS(=O)(=O)c3c(F)cccc3F)c2F)c(-c2ccnc(N)n2)s1 [Dabrafenib] | 23.1 µM | 9.2 µM | 46.2% | 81.6%
CN(C)/N=N/c1[nH]cnc1C(N)=O [Dacarbazine] | 7.3 µM | 16.4 µM | 66.6% | 91.9%
COC(=O)N[C@H](C(=O)N1CCC[C@H]1c1ncc(-c2ccc(-c3ccc(-c4cnc([C@@H]5CCCN5C(=O)[C@@H](NC(=O)OC)C(C)C)[nH]4)cc3)cc2)[nH]1)C(C)C [Daclatasvir dihydrochloride] | 29.1 µM | 29.1 µM | 103% | 101%
C#C[C@]1(O)CC[C@H]2[C@@H]3CCC4=Cc5oncc5C[C@]4(C)[C@H]3CC[C@@]21C [Danazol] | > 45.8 µM | 20.6 µM | – | 47.9%
CN(C)[C@@H](CCOc1cccc2ccccc12)c1ccccc1 [Dapoxetine] | 29.1 µM | 23.1 µM | 71.4% | 70.9%
Cc1nc(Nc2ncc(C(=O)Nc3c(C)cccc3Cl)s2)cc(N2CCN(CCO)CC2)n1 [Dasatinib] | 29.1 µM | 23.1 µM | 74.6% | 105%
COc1cccc2c1C(=O)c1c(O)c3c(c(O)c1C2=O)C[C@@](O)(C(C)=O)C[C@@H]3O[C@H]1C[C@H](N)[C@H](O)[C@H](C)O1 [Daunorubicin] | 0.461 µM | 0.0517 µM | 102% | 83.8%
O=C(O)c1ccc(-n2nc(-c3ccccc3O)nc2-c2ccccc2O)cc1 [Deferasirox] | 18.3 µM | 29.1 µM | 99.7% | 109%
CC(=O)N(O)CCCCCNC(=O)CCC(=O)N(O)CCCCCNC(=O)CCC(=O)N(O)CCCCCN [Deferoxamine mesylate] | 29.1 µM | 29.1 µM | 99.1% | 105%
CN(C)[C@@H]1C(O)=C(C(N)=O)C(=O)[C@@]2(O)C(O)=C3C(=O)c4c(O)ccc(Cl)c4[C@@H](O)[C@H]3C[C@@H]12 [Demeclocycline hydrochloride] | > 45.8 µM | 16.4 µM | – | 40%
Cc1cc(N)c2ccccc2[n+]1CCCCCCCCCC[n+]1c(C)cc(N)c2ccccc21 [Dequalinium dichloride] | > 45.8 µM | 2.98 µM | – | 55.3%
COC(=O)[C@H]1[C@H]2C[C@@H]3c4[nH]c5ccccc5c4CCN3C[C@H]2C[C@@H](OC(=O)c2cc(OC)c(OC)c(OC)c2)[C@@H]1OC [Deserpidine] | 29.1 µM | 25.9 µM | 59.1% | 48.2%
CNCCCN1c2ccccc2CCc2ccccc21 [Desipramine hydrochloride] | > 45.8 µM | 18.3 µM | – | 47.5%
C[C@H]1O[C@@H](O[C@H]2CC[C@@]3(C)[C@H](CC[C@@H]4[C@@H]3C[C@@H](O)[C@]3(C)[C@@H](C5=CC(=O)OC5)CC[C@]43O)C2)C[C@H](O)[C@@H]1O[C@H]1C[C@H](O)[C@H](O[C@H]2C[C@H](O)[C@H](O[C@@H]3O[C@H](CO)[C@@H](O)[C@H](O)[C@H]3O)[C@@H](C)O2)[C@@H](C)O1 [Deslanoside] | 0.231 µM | 0.231 µM | 85.6% | 78.1%
N=C(N)c1ccc(OCCCOc2ccc(C(=N)N)cc2Br)c(Br)c1 [Dibromopropamidine dihydrochloride] | > 45.8 µM | 18.3 µM | – | 51.6%
Oc1ccc(Cl)cc1Cc1cc(Cl)ccc1O [Dichlorophen] | 10.3 µM | 8.2 µM | 106% | 99.9%
N#CC(c1ccc(Cl)cc1)c1c(Cl)cc(-n2ncc(=O)[nH]c2=O)cc1Cl (configuration not stated) [Diclazuril] | 20.6 µM | 20.6 µM | 46.5% | 56.7%
C/C=C(/C(=C/C)c1ccc(O)cc1)c1ccc(O)cc1 [Dienestrol] | 29.1 µM | > 45.8 µM | 74.2% | –
CC/C(=C(/CC)c1ccc(O)cc1)c1ccc(O)cc1 [Diethylstilbestrol] | 18.3 µM | 23.1 µM | 52.4% | 47.5%
CC(C(O)c1ccccc1)N(C)CCOC(c1ccccc1)c1ccccc1 (configuration not stated) [Difeterol] | 29.1 µM | 23.1 µM | 83% | 85.3%
O=c1c(C2CC(c3ccc(-c4ccc(Br)cc4)cc3)Cc3ccccc32)c(O)sc2ccccc12 (configuration not stated) [Difethialone] | 23.1 µM | 18.3 µM | 46.7% | 68.3%
CC(=O)O[C@H]1C[C@H](O[C@H]2[C@@H](O)C[C@H](O[C@H]3[C@@H](O)C[C@H](O[C@H]4CC[C@@]5(C)[C@H](CC[C@@H]6[C@@H]5CC[C@]5(C)[C@@H](C7=CC(=O)OC7)CC[C@]65O)C4)O[C@@H]3C)O[C@@H]2C)O[C@H](C)[C@H]1O [Digitoxin 3'''-Acetate] | 0.231 µM | 0.116 µM | 75% | 87.8%
C[C@H]1O[C@@H](O[C@H]2[C@@H](O)C[C@H](O[C@H]3[C@@H](O)C[C@H](O[C@H]4CC[C@@]5(C)[C@H](CC[C@@H]6[C@@H]5C[C@@H](O)[C@]5(C)[C@@H](C7=CC(=O)OC7)CC[C@]65O)C4)O[C@@H]3C)O[C@@H]2C)C[C@H](O)[C@@H]1O [Digoxin] | 0.183 µM | 0.146 µM | 76.2% | 83.8%
COc1cc(C(=O)OCCCN2CCCN(CCCOC(=O)c3cc(OC)c(OC)c(OC)c3)CC2)cc(OC)c1OC [Dilazep] | > 45.8 µM | 29.1 µM | – | 51.1%
